The text below walks through data of patent US10479780B2, “Aminopyrazole derivatives” (Chugai Seiyaku Kabushiki Kaisha, priority 2015, dated 2019).

Read-outs that look alike come from different tables or passages of the source.

Common to all, as to type: biochemical
One assay deals with T1, human Yes1 enzyme (Homo sapiens, UniProt P07947).
T1 construct: made in house
Briefly: Yes1 enzyme inhibitory activity (time-resolved fluorometry, biotinylated peptide phosphorylation). Particulars: read-out: YES_IC50. In a few lines:
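Inhibition was expressed against a compound-free control to give IC50, using TR-FRET read-out (Eu-cryptate anti-pTyr antibody, streptavidin-XL665).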

A further assay addresses T2, human Src enzyme (Homo sapiens, UniProt P12931).
T2 construct: purchased Carna Biosciences, Inc. 08-173
Briefly: Src enzyme inhibitory activity (time-resolved fluorometry, biotinylated peptide phosphorylation). Particulars: read-out: SRC_IC50. The procedure, abridged:
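Compounds were tested for blocking tyrosine phosphorylation of a biotinylated peptide substrate by recombinant human Src. Phosphorylated product was quantified by time-resolved fluorometry using europium cryptate and XL665 conjugates, and IC50 was calculated against the compound-free control.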

For a further assay, the target named is T3, human Lck enzyme (Homo sapiens, UniProt P06239).
T3 construct: purchased Carna Biosciences, Inc. 08-170
T3 sequence (P06239 whole entry): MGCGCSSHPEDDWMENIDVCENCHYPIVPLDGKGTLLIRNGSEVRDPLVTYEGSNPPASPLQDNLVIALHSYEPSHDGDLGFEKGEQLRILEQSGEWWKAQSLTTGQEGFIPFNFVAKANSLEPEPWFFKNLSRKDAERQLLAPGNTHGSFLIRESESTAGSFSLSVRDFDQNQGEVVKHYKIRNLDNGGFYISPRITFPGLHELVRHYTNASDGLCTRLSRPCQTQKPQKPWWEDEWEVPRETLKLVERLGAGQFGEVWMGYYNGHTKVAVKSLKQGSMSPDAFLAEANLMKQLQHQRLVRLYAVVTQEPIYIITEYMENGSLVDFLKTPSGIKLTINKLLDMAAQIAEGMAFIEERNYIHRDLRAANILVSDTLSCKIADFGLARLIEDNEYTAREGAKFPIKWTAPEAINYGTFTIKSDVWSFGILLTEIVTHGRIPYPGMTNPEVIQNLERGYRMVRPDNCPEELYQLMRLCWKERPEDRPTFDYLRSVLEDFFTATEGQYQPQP
Briefly: Lck enzyme inhibitory activity (time-resolved fluorometry, biotinylated peptide phosphorylation). As to conditions: read-out: LCK_IC50. In a few lines: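 Readout pairs a europium cryptate-labelled anti-phosphotyrosine antibody with XL665-streptavidin, measured by time-resolved fluorescence. IC50 derived from percent inhibition against untreated controls.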

Where [1] appears, read: biotinylated peptide phosphorylation.

T1 sequence (P07947 whole entry): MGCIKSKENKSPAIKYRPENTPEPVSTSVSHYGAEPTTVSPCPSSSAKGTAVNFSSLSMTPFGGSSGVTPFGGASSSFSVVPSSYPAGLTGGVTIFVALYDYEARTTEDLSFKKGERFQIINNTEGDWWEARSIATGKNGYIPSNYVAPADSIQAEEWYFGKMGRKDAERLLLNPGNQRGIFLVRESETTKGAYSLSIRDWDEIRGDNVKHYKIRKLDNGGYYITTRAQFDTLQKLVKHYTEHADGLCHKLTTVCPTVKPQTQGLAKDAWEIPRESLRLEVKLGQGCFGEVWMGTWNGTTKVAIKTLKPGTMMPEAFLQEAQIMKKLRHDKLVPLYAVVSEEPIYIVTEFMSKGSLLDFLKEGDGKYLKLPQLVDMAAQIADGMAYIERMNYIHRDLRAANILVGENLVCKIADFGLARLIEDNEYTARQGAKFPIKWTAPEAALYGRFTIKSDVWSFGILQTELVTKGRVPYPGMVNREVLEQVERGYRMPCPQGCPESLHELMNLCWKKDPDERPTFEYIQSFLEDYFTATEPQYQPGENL
T2 sequence (P12931 whole entry): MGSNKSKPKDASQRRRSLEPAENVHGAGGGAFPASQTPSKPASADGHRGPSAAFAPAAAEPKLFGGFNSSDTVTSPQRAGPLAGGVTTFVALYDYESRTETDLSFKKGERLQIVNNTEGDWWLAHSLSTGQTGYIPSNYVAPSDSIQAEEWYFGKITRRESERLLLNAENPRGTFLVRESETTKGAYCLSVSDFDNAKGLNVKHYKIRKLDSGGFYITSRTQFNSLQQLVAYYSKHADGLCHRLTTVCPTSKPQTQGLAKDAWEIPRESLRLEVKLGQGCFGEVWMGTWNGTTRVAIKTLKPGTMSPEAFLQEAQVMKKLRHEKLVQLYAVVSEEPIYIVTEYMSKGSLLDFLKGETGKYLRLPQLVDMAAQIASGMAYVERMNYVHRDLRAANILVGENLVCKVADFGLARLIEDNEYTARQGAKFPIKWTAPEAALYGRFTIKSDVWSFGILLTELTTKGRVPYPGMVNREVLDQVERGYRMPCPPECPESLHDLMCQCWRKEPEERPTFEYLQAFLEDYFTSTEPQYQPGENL

For `Cc1cc(Oc2ccccc2F)ccc1-n1ncc(C(=O)c2cc3cc(F)c(N4C(=O)NC5(COC5)C4=O)cc3[nH]2)c1N` [Example 5-1-376, 7-[2-[5-amino-1-[4-(2-fluorophenoxy)-2-methylphenyl]pyrazole-4-carbonyl]-5-fluoro-1H-indol-6-yl]-2-oxa-5,7-diazaspiro[3.4] octane-6,8-dione], the IC50 was 1.4 nM on human Yes1 enzyme, 14 nM on human Src enzyme and 4 nM on human Lck enzyme.
On to `COc1cc(F)cc(S(=O)(=O)Nc2cc3[nH]c(C(=O)c4cnn(-c5cnc(Oc6ccccc6F)cc5C)c4N)cc3cc2C)c1` [Example 5-1-496, N-[2-[5-amino-1-[6-(2-fluorophenoxy)-4-methylpyridin-3-yl]pyrazole-4-carbonyl]-5-methyl-1H-indol-6-yl]-3-fluoro-5-methoxybenzenesulfonamide], for which the values for the IC50 at human Yes1 enzyme (setting [1]), on human Src enzyme (setting [1]) and on human Lck enzyme (setting [1]) were 11 nM, 1300 nM and 630 nM, respectively.
Regarding `CS(=O)(=O)Nc1cc2[nH]c(C(=O)c3cnn(-c4c(Cl)cc(Oc5cccc(F)c5F)cc4Cl)c3N)cc2cc1F` [Example 5-1-024, N-[2-[5-amino-1-[2,6-dichloro-4-(2,3-difluorophenoxy)phenyl]pyrazole-4-carbonyl]-5-fluoro-1H-indol-6-yl]methanesulfonamide], the IC50 at human Yes1 enzyme was 26 nM; on human Src enzyme, 340 nM; on human Lck enzyme it was 83 nM.
Turning to `Cc1cc2cc(C(=O)c3cnn(-c4cnc(Oc5ccc(F)cc5)cc4C)c3N)[nH]c2cc1N1CCCS1(=O)=O` [Example 4-2-119, [5-amino-1-[6-(4-fluorophenoxy)-4-methylpyridin-3-yl]pyrazol-4-yl]-[6-(1,1-dioxo-1,2-thiazolidin-2-yl)-5-methyl-1H-indol-2-yl]methanone], the IC50 at human Yes1 enzyme (setting [1]) turned out to be 7.4 nM; at human Src enzyme (setting [1]), 70 nM; at human Lck enzyme (setting [1]), 23 nM.
Consider `COc1cc2cc(C(=O)c3cnn(-c4ccc(Oc5ccccc5F)cc4C)c3N)[nH]c2cc1NS(=O)(=O)N1CCOCC1` [Example 4-12-003, N-[2-[5-amino-1-[4-(2-fluorophenoxy)-2-methylphenyl]pyrazole-4-carbonyl]-5-methoxy-1H-indol-6-yl]morpholine-4-sulfonamide], for which the IC50 came out at 0.54 nM on human Yes1 enzyme (setting [1]), 45 nM at human Src enzyme (setting [1]) and 14 nM at human Lck enzyme (setting [1]).
For `Cc1cc2cc(C(=O)c3cnn(-c4ccc(Oc5ncccc5Cl)cc4Cl)c3N)[nH]c2cc1NS(=O)(=O)CCCF` [Example 5-1-063, N-[2-[5-amino-1-[2-chloro-4-(3-chloropyridin-2-yl)oxyphenyl]pyrazole-4-carbonyl]-5-methyl-1H-indol-6-yl]-3-fluoropropane-1-sulfonamide], the values for the IC50 on human Yes1 enzyme, at human Src enzyme and at human Lck enzyme were 2.8 nM, 83 nM and 29 nM, respectively.
In the same order, the values of `Cc1cc(-n2ncc(C(=O)c3cc4cc(OCC(F)F)c(-c5cnn(C)c5)cc4[nH]3)c2N)ccc1Oc1ccccc1F` [Example 5-1-263, [5-amino-1-[4-(2-fluorophenoxy)-3-methylphenyl]pyrazol-4-yl]-[5-(2,2-difluoroethoxy)-6-(1-methylpyrazol-4-yl)-1H-indol-2-yl]methanone] are 19 nM, 2600 nM and 710 nM.
On to `Cc1cc2cc(C(=O)c3cnn(-c4c(C)cc(Oc5ccccc5F)cc4F)c3N)[nH]c2cc1N1CCC(N2CCOCC2)CC1` [Example 5-1-085, [5-amino-1-[2-fluoro-4-(2-fluorophenoxy)-6-methylphenyl]pyrazol-4-yl]-[5-methyl-6-(4-morpholin-4-ylpiperidin-1-yl)-1H-indol-2-yl] methanone], for which the IC50 was 2.3 nM at human Yes1 enzyme, 21 nM at human Src enzyme and 2 nM on human Lck enzyme.
Consider `Cc1cc(Oc2c(F)cccc2F)ncc1-n1ncc(C(=O)c2cc3cc(OC(F)F)c(NC4CCN(S(C)(=O)=O)CC4)cc3[nH]2)c1N` [Example 4-23-015, [5-amino-1-[6-(2,6-difluorophenoxy)-4-methylpyridin-3-yl]pyrazol-4-yl]-[5-(difluoromethoxy)-6-[(1-methylsulfonylpiperidin-4-yl)amino]-1H-indol-2-yl]methanone], for which the results for the IC50 on human Yes1 enzyme (setting [1]), on human Src enzyme (setting [1]) and at human Lck enzyme (setting [1]) were 5.4 nM, 49 nM and 23 nM, respectively.
Turning to `COc1cc2cc(C(=O)c3cnn(-c4c(C)cc(Oc5ccccc5F)cc4F)c3N)[nH]c2cc1NS(=O)(=O)CC(=O)N1CCCC1` [Example 5-1-130, N-[2-[5-amino-1-[2-fluoro-4-(2-fluorophenoxy)-6-methylphenyl]pyrazole-4-carbonyl]-5-methoxy-1H-indol-6-yl]-2-oxo-2-pyrrolidin-1-ylethanesulfonamide], the values for the IC50 at human Yes1 enzyme, at human Src enzyme and on human Lck enzyme were 0.56 nM, 13 nM and 3.8 nM, respectively.
Turning to `COc1ccnc(S(=O)(=O)Nc2cc3[nH]c(C(=O)c4cnn(-c5ccc(Oc6ccccc6F)cc5C)c4N)cc3cc2F)c1` [Example 5-1-512, N-[2-[5-amino-1-[4-(2-fluorophenoxy)-2-methylphenyl]pyrazole-4-carbonyl]-5-fluoro-1H-indol-6-yl]-4-methoxypyridine-2-sulfonamide], the IC50 on human Yes1 enzyme (setting [1]) turned out to be 1.2 nM; at human Src enzyme (setting [1]), 250 nM; at human Lck enzyme (setting [1]) it was 33 nM.
Regarding `COc1cc2cc(C(=O)c3cnn(-c4ccc(Oc5ccccc5F)cc4C)c3N)[nH]c2cc1NS(=O)(=O)CCCF` [Example 4-13-002, N-[2-[5-amino-1-[4-(2-fluorophenoxy)-2-methylphenyl]pyrazole-4-carbonyl]-5-methoxy-1H-indol-6-yl]-3-fluoropropane-1-sulfonamide], the IC50 stood at 2.4 nM on human Yes1 enzyme (setting [1]), 27 nM at human Src enzyme (setting [1]) and 20 nM at human Lck enzyme (setting [1]).
For the compound `Cc1cc(Oc2ccccc2F)ncc1-n1ncc(C(=O)c2cc3cc(F)c(NS(=O)(=O)C4CCOCC4)cc3[nH]2)c1N` [Example 5-1-378, N-[2-[5-amino-1-[6-(2-fluorophenoxy)-4-methylpyridin-3-yl]pyrazole-4-carbonyl]-5-fluoro-1H-indol-6-yl]oxane-4-sulfonamide], the IC50 was found to be 2.8 nM at human Yes1 enzyme, 63 nM on human Src enzyme and 37 nM at human Lck enzyme.
As for `Cc1cc2cc(C(=O)c3cnn(-c4cnc(Oc5c(F)cccc5F)cc4C)c3N)[nH]c2cc1N1C(=O)N[C@@H](C(C)C)C1=O` [Example 5-1-453, (5S)-3-[2-[5-amino-1-[6-(2,6-difluorophenoxy)-4-methylpyridin-3-yl]pyrazole-4-carbonyl]-5-methyl-1H-indol-6-yl]-5-propan-2-ylimidazolidine-2,4-dione], the IC50 was found to be 3.2 nM at human Yes1 enzyme (setting [1]), 130 nM on human Src enzyme (setting [1]) and 12 nM at human Lck enzyme (setting [1]).
In the same order, the values of `Cc1cc(Oc2ccccc2Cl)ncc1-n1ncc(C(=O)c2cc3cc(Cl)c(NS(C)(=O)=O)cc3[nH]2)c1N` [Example 4-2-088, N-[2-[5-amino-1-[6-(2-chlorophenoxy)-4-methylpyridin-3-yl]pyrazole-4-carbonyl]-5-chloro-1H-indol-6-yl]methanesulfonamide] are 2.6 nM, 170 nM and 48 nM.
In the same order, the values of `Cc1cc(Oc2ccccc2F)cc(F)c1-n1ncc(C(=O)c2cc3cc(OC(F)F)c(NC4CCN(S(C)(=O)=O)CC4)cc3[nH]2)c1N` [Example 4-23-012, [5-amino-1-[2-fluoro-4-(2-fluorophenoxy)-6-methylphenyl]pyrazol-4-yl]-[5-(difluoromethoxy)-6-[(1-methylsulfonylpiperidin-4-yl)amino]-1H-indol-2-yl]methanone] are 14 nM, 70 nM and 31 nM.
Regarding `Cc1cc(-n2ncc(C(=O)c3cc4cc(OC(F)F)c(NS(C)(=O)=O)cc4[nH]3)c2N)ccc1Oc1ccccc1F` [Example 5-1-167, N-[2-[5-amino-1-[4-(2-fluorophenoxy)-3-methylphenyl]pyrazole-4-carbonyl]-5-(difluoromethoxy)-1H-indol-6-yl] methanesulfonamide], the IC50 on human Yes1 enzyme was 3.6 nM; at human Src enzyme it was 2000 nM; on human Lck enzyme, 370 nM.
As to `Cc1cnc(F)c(S(=O)(=O)Nc2cc3[nH]c(C(=O)c4cnn(-c5cnc(Oc6ccccc6F)cc5C)c4N)cc3cc2F)c1` [Example 5-1-524, N-[2-[5-amino-1-[6-(2-fluorophenoxy)-4-methylpyridin-3-yl]pyrazole-4-carbonyl]-5-fluoro-1H-indol-6-yl]-2-fluoro-5-methylpyridine-3-sulfonamide], the IC50 at human Yes1 enzyme (setting [1]) amounted to 5.7 nM; at human Src enzyme (setting [1]), 580 nM; on human Lck enzyme (setting [1]), 210 nM.
The like results for `Cc1cc(Oc2ccccc2F)ncc1-n1ncc(C(=O)c2cc3cc(OCC(F)F)c(N4CCN(S(C)(=O)=O)CC4)cc3[nH]2)c1N` [Example 4-23-007, [5-amino-1-[6-(2-fluorophenoxy)-4-methylpyridin-3-yl]pyrazol-4-yl]-[5-(2,2-difluoroethoxy)-6-(4-methylsulfonylpiperazin-1-yl)-1H-indol-2-yl]methanone] were, in that order, 1.3 nM, 16 nM and 5.5 nM.
Consider `Cc1cc(Oc2ccccc2F)ncc1-n1ncc(C(=O)c2cc3cc(OCC(F)F)c(N4C(=O)NC(C)(C)C4=O)cc3[nH]2)c1N` [Example 5-1-377, 3-[2-[5-amino-1-[6-(2-fluorophenoxy)-4-methylpyridin-3-yl]pyrazole-4-carbonyl]-5-(2,2-difluoroethoxy)-1H-indol-6-yl]-5,5-dimethylimidazolidine-2,4-dione], for which the IC50 on human Yes1 enzyme amounted to 2 nM; on human Src enzyme, 17 nM; on human Lck enzyme, 7.4 nM.
